Test results from patent US9029337B2, “Modulation of factor 7 expression” (Isis Pharmaceuticals, Inc., priority 2007, dated 2015).
Strand notation (5' to 3'): a small letter for the sugar, then the base; units joined by * are phosphorothioate-linked, units joined directly phosphodiester-linked; [ ] holds rarer units or linkages, { } end groups; capitals alone tell only the bases. e = 2'-O-(2-methoxyethyl) (MOE); [5mC] = 5-methylcytosine; d = 2'-deoxy (DNA)

System: human Factor 7 mRNA
Assay: Antisense inhibition of human Factor 7 mRNA in HepB3 cells, 50 nM antisense oligonucleotide, lipofectin
Assay type: cell-based
Settings: for % Inhibition: lipofectin, approximately 24 hours
Procedure, shortened: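 Readout is percent reduction of Factor 7 message compared with untreated cells, after correction for total RNA content quantified by RIBOGREEN®. Cultures were seeded at 4,000 cells per well and treated for about 24 hours before RNA extraction.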

[1] = Table 1, 50 nM, relative to untreated control cells
[2] = 50 nM antisense oligonucleotide, Factor 7 mRNA by real-time RT-PCR (RTS 2927), relative to untreated control

In the case of “407960 (antisense eG*eT*eG*e[5mC]*e[5mC]*d[5mC]*dA*dG*dG*dA*d[5mC]*dG*dG*d[5mC]*d[5mC]*e[5mC]*eT*eG*e[5mC]*eA) [compound 407960]”, the “% Inhibition” value [1] is reported as 53%.
“407637 (antisense eG*eT*eA*e[5mC]*eT*dG*dG*dG*dA*dG*dA*d[5mC]*d[5mC]*d[5mC]*dT*eG*eG*eT*eG*eT) [compound 407637]” was tested, and the “% Inhibition” value [1] was 71%.
“407656 (antisense e[5mC]*eA*eG*e[5mC]*eA*dA*dG*dA*dG*dT*dG*d[5mC]*dA*dG*d[5mC]*eT*eT*eG*e[5mC]*e[5mC]) [compound 407656]” was tested, and the “% Inhibition” value [1] was 43%.
In the case of “416534 (antisense eA*eT*eG*e[5mC]*eA*d[5mC]*dA*d[5mC]*d[5mC]*dA*dG*dG*dG*d[5mC]*dT*eG*e[5mC]*eT*eG*eG) [compound 416534]”, the “% Inhibition” value [2] is reported as 32%.
“407610 (antisense eA*eG*eG*eG*eA*dG*dG*d[5mC]*dA*dG*dA*dA*dG*d[5mC]*dA*eG*eA*eT*eA*eT) [compound 407610]” was tested, and the “% Inhibition” value [1] was 31%.
With “416513 (antisense e[5mC]*eT*eG*eA*eT*dG*dT*dG*dA*dA*dA*dA*d[5mC]*d[5mC]*dG*eG*e[5mC]*eA*eT*eG) [compound 416513]” the “% Inhibition” value [2] was 37%.
For “407950 (antisense eA*eG*e[5mC]*eT*eT*d[5mC]*d[5mC]*dA*dT*dG*dT*dG*dA*dG*dG*eG*eT*eT*e[5mC]*eA) [compound 407950]”, the “% Inhibition” value [1] was 58%.
For “407655 (antisense eA*eG*eA*eG*eT*dG*d[5mC]*dA*dG*d[5mC]*dT*dT*dG*d[5mC]*d[5mC]*eA*eG*eG*eT*e[5mC]) [compound 407655]”, the “% Inhibition” value [1] was 28%.
For “416467 (antisense e[5mC]*e[5mC]*e[5mC]*eT*eG*dG*d[5mC]*d[5mC]*d[5mC]*d[5mC]*dA*dG*d[5mC]*dT*dG*eA*e[5mC]*eG*eA*eT) [compound 416467]”, the “% Inhibition” value [2] was 55%.
With “422197 (antisense eT*eT*eA*d[5mC]*dT*dG*dA*dG*d[5mC]*dG*d[5mC]*dG*dG*dA*dA*dG*dA*eA*eG*eG) [compound 422197]” the “% Inhibition” value (Table 6, 50 nM) was 26%.
With “407605 (antisense eT*eT*eG*eA*eG*dG*d[5mC]*dA*d[5mC]*dA*d[5mC]*dT*dG*dG*dT*e[5mC]*e[5mC]*e[5mC]*e[5mC]*eA) [compound 407605]” the “% Inhibition” value [1] was 58%.
With “416530 (antisense eA*eG*eG*eG*eT*dA*dG*d[5mC]*d[5mC]*dT*dT*dT*dG*d[5mC]*d[5mC]*eT*eT*eG*eG*e[5mC]) [compound 416530]” the “% Inhibition” value [2] was 35%.
In the case of “422245 (antisense eT*eG*dA*dG*dG*dA*dG*dA*d[5mC]*dA*dA*dT*dG*dG*dT*e[5mC]*eA*eG*eG*eG) [compound 422245]”, the “% Inhibition (human Factor 7 mRNA levels)” value (oligonucleotides targeted to nucleobases 11830 to 11869 of SEQ ID NO: 1 (Table 9)) is reported as 24%.
For “416520 (antisense e[5mC]*e[5mC]*e[5mC]*eT*e[5mC]*dT*dG*d[5mC]*dA*dA*dA*dT*dA*dT*dG*eG*eG*eA*e[5mC]*e[5mC]) [compound 416520]”, the “% Inhibition” value [2] was 14%.
With “422222 (antisense eA*eG*e[5mC]*d[5mC]*d[5mC]*dG*dA*dG*dT*dT*d[5mC]*dT*dG*d[5mC]*dA*dG*dG*eA*eG*e[5mC]) [compound 422222]” the “% Inhibition of human Factor 7 mRNA levels” value (gapmers targeted to nucleobases 4868 to 4899 of SEQ ID NO: 1, Table 8) was 55%.
